Experiment [1] is described as follows: microbe, parasite or virus in culture. It is filed as functional. Conditions: Mycobacterium tuberculosis.
The nature of experiment [2]: THP-1 cell cytotoxicity, dose response, cytotoxicity control for non-replicating M. tuberculosis project (AID 489025). It is filed as functional.
The nature of a further experiment: cells. It is filed as functional.
Another experiment addresses Bcl-2-like protein 10 (Homo sapiens, UniProt Q9HD36). The experiment can be described thus: Bcl-B/TR3 peptide binding disruption – biochemical, fluorescence polarization, FITC-TR3 peptide, selectivity assay for Bfl-1 inhibitor project, primary screen (AID 748).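 Further: fluorescence polarization from a fluorescein-labelled TR3 peptide binding purified Bcl-B.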
Experiment [3] can be described thus: Vero E6 cell cytotoxicity, dose response, cytotoxicity control for non-replicating M. tuberculosis project, secondary assay (AID 492998). It is filed as functional, VeroE6. Conditions: Vero C1008.
Experiment [4] is described as follows: HepG2 cell cytotoxicity, dose response, cytotoxicity control for non-replicating M. tuberculosis project (AID 489018). It is filed as functional. Conditions: Mycobacterium tuberculosis.
In experiment [5] the target is T1, Voltage-gated N-type calcium channel alpha-1B subunit/Amyloid beta A4 precursor protein-binding family A member 1 (Homo sapiens, UniProt Q00975+Q02410). In words: disruptors of Mint-PDZ/N-type channel peptide interaction – biochemical, HTRF, set 2, SAR follow-up (AID 434980). The format is functional. (In TR-FRET formats the signal depends on donor and acceptor labels being close together.)

The target of another experiment is SUMO E1/E2 (Homo sapiens, UniProt P63279+Q9UBE0+Q9UBT2). The experiment can be described thus: SAR analysis of SUMOylation using HTRF in an in-Vitro dose response assay. [Related pubchem assays (depositor defined):AID2006, AID2011, AID2018, AID2069, AID2658]. It is filed as functional.
Experiment [6] has as its target T1, Voltage-gated N-type calcium channel alpha-1B subunit/Amyloid beta A4 precursor protein-binding family A member 1. In words: disruptors of Mint-PDZ/N-type channel peptide interaction – biochemical, HTRF, SAR follow-up (AID 2489). It is filed as functional.
A further experiment concerns the target Cytochrome P450 2C19 (Homo sapiens, UniProt P33261). In words: qHTS Assay for Inhibitors and Substrates of Cytochrome P450 2C19. [Related pubchem assays: 410 ]. The format is ADME. Conditions: read-out: Potency. On the technique in general: qHTS replaces the single test concentration by a dilution series.
A further experiment deals with Cytochrome P450 2D6 (Homo sapiens, UniProt P10635). In words: qHTS Assay for Inhibitors and Substrates of Cytochrome P450 2D6. [Related pubchem assays: 410 ]. It is filed as ADME. Conditions: read-out: Potency.
The target in the next experiment is Caspase-7 (Homo sapiens, UniProt P55210). The experiment can be described thus: potency of procaspase-7 enzyme activation – biochemical, absorbance, human, dual procaspase-3/-7 activator project, dose response (AID 504330).
The target in a further experiment is T2, Caspase-3 (Homo sapiens, UniProt P42574).
T2 sequence (P42574 whole entry): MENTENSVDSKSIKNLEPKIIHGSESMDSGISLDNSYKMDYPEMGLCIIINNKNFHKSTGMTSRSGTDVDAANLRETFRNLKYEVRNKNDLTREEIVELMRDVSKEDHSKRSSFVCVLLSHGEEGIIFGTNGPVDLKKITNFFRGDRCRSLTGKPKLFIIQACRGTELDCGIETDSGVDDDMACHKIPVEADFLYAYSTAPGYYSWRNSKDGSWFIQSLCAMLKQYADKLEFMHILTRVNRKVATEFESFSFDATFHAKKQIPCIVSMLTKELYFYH
In words: activators of human procaspase-3 D3A mutant – biochemical, absorbance, PC-3 D3A mutant, counter-screen for dual procaspase-3/7 activator project, dose response (AID 504328). (Counterscreens check selectivity or assay interference.)

Experiment [7] has as its target Polyadenylate-binding protein 1 (Homo sapiens, UniProt P11940). In words: blockers of PABP interaction with poly(A) – biochemical, fluorescence polarization, […] (AID 2014).
In experiment [8] the target is Eukaryotic translation initiation factor 4H (Homo sapiens, UniProt Q15056). In words: eIF4H binding inhibition – biochemical, uHTS, fluorescence polarization, translation initiation inhibitor project, primary screen (AID 2012).
The target of experiment [9] is DNA dC->dU-editing enzyme APOBEC-3G (Homo sapiens, UniProt Q9HC16). The format is functional.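 Further: Dose-response counterscreen measuring inhibition of APOBEC3G DNA deaminase activity, run while confirming APOBEC3A inhibitors.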
In experiment [10] the target is DNA dC->dU-editing enzyme APOBEC-3A (Homo sapiens, UniProt P31941). In words: Dose Response confirmation of small molecule APOBEC3A DNA Deaminase Inhibitors via a fluorescence-based single-stranded DNA deaminase assay. [Related pubchem assays (depositor defined):AID493011, AID493024]. The format is functional.

5 molecules from ChEMBL document CHEMBL1201862, “PubChem BioAssay data set” (2004) can be followed below.

What is called IC50 is the concentration needed to halve the response being measured. In general, EC50 refers to the midpoint of the concentration-response curve.

Activity calls are given as the source filed them.

T1 sequence (Q00975 whole entry): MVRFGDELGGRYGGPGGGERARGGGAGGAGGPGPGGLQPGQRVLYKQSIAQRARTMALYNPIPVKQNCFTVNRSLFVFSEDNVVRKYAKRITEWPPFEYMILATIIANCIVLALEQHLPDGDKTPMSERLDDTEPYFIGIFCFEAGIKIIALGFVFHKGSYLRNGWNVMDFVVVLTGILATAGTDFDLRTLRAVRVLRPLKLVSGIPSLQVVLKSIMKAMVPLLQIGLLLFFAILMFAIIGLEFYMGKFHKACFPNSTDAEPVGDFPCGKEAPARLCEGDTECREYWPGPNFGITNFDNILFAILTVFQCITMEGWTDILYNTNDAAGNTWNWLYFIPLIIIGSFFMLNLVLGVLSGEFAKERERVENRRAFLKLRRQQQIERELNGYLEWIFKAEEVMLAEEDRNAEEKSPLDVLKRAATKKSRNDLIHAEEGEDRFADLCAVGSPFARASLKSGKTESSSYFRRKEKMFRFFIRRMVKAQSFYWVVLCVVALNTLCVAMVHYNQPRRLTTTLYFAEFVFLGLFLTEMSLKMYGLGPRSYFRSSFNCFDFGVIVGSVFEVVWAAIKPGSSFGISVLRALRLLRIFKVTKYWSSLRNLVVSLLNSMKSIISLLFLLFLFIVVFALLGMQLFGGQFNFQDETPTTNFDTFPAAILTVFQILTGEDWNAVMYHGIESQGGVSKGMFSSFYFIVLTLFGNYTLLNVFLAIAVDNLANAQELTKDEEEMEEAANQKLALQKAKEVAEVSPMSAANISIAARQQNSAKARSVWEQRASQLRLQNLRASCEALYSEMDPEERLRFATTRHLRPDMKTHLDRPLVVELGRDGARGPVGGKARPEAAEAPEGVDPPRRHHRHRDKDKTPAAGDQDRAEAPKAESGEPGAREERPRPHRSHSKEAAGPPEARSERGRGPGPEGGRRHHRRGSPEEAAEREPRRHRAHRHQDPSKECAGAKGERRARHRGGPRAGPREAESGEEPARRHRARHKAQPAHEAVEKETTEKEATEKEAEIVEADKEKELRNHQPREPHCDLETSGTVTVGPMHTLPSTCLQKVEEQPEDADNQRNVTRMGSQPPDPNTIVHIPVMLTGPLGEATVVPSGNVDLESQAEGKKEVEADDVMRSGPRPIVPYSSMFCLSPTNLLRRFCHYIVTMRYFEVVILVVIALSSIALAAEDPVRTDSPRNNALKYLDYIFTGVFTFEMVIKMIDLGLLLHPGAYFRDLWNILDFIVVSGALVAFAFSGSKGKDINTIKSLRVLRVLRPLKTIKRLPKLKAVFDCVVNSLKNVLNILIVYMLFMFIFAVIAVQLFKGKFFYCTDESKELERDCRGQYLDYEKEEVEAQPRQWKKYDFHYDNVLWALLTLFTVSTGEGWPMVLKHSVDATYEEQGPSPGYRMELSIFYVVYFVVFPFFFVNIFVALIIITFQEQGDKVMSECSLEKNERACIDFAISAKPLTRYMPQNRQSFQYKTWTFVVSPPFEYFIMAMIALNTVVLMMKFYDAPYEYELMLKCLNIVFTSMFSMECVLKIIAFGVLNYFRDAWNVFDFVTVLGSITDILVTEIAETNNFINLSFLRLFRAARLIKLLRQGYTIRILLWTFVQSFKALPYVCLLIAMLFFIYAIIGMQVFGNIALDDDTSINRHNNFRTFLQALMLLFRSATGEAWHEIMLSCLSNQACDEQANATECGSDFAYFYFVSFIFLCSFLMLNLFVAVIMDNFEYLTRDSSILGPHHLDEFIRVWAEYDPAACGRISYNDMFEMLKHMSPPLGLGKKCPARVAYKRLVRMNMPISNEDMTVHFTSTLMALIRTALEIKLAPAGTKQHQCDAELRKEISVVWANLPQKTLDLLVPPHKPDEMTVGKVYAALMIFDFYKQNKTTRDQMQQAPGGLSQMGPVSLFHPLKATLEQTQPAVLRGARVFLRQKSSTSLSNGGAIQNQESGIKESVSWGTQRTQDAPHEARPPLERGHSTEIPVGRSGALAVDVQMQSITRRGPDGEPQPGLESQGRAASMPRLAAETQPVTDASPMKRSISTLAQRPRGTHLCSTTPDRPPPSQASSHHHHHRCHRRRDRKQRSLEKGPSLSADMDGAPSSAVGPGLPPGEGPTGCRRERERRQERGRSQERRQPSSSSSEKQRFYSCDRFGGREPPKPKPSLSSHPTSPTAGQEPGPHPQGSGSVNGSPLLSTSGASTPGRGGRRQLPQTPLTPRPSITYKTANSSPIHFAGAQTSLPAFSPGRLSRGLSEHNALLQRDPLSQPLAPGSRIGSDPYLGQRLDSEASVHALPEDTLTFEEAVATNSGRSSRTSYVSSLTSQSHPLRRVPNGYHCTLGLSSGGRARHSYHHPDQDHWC
T1 sequence (Q02410 whole entry): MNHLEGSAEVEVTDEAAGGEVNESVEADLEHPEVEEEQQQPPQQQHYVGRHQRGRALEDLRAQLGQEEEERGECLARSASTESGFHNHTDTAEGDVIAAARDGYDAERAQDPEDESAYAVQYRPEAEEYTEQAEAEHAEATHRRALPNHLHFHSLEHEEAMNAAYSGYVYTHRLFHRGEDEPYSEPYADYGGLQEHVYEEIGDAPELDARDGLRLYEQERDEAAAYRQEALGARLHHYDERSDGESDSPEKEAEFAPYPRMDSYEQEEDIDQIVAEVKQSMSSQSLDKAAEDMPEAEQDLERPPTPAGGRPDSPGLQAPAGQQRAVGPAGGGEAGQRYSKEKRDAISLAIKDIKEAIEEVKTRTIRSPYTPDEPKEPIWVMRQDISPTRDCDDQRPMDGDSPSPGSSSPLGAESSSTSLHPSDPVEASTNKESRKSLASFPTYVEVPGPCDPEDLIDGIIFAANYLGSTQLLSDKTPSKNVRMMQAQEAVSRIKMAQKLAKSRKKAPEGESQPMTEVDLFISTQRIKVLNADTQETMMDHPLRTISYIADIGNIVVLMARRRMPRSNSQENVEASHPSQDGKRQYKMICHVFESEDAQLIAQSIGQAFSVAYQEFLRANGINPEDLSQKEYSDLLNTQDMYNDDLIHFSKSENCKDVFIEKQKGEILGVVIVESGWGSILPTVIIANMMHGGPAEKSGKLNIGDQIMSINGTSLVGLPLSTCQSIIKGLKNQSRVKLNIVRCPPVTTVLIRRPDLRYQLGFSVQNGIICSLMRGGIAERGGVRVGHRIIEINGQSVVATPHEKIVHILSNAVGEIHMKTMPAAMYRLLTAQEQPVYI
Sequence of DNA dC->dU-editing enzyme APOBEC-3G (Q9HC16 whole entry): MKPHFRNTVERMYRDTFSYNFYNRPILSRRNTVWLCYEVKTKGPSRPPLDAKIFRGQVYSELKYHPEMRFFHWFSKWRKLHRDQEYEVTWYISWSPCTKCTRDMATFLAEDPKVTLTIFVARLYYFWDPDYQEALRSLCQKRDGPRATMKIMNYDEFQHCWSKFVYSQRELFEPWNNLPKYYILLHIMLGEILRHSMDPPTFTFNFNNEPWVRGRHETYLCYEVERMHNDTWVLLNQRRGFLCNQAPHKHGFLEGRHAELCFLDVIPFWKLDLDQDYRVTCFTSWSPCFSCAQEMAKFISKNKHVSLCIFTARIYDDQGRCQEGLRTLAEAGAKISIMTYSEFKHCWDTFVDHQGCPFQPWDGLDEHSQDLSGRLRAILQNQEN
Sequence of Bcl-2-like protein 10 (Q9HD36 whole entry): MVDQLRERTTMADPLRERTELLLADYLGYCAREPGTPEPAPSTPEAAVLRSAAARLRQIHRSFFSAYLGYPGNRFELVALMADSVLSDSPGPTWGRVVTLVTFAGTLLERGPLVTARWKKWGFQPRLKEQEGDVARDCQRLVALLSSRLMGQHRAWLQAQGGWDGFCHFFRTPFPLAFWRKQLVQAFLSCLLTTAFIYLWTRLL
Sequence of DNA dC->dU-editing enzyme APOBEC-3A (P31941 whole entry): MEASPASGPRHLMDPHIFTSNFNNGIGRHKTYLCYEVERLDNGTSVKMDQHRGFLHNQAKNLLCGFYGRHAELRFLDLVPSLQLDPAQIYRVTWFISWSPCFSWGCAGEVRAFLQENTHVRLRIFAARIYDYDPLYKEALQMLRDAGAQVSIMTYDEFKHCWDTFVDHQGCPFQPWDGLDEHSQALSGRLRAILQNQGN
Sequence of Polyadenylate-binding protein 1 (P11940 whole entry): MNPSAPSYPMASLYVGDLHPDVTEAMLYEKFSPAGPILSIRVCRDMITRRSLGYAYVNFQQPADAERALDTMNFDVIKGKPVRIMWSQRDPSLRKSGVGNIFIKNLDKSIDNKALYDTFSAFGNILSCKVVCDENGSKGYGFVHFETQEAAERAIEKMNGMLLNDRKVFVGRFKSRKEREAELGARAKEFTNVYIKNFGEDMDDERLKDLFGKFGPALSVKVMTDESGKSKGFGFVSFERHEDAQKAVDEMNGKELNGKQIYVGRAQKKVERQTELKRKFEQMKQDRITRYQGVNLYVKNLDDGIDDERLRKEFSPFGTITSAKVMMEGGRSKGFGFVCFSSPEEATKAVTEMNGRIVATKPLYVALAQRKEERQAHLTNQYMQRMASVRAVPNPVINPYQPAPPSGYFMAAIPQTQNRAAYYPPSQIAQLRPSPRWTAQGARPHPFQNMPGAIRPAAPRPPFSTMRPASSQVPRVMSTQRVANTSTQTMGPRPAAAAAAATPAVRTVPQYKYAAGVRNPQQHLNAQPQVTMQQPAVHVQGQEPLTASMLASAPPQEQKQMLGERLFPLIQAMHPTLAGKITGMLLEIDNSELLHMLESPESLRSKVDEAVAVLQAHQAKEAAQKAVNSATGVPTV

Regarding `Cc1c(CN(C)C)c2c(n1Cc1ccccc1)C(=O)c1ccc(Br)cc1-2`, the CC50 in experiment [1] is 22 µM (active); in [2] it was 10.5 µM (active); in experiment [3], 15.3 µM (active); in experiment [4], > 20 µM (active). For the same molecule, the IC50 in “cells” is 10.6 µM (active); on Bcl-2-like protein 10, > 50 µM (inactive).

With `Cc1ccc(S(=O)(=O)N(C)C)cc1NC(=O)c1cc(-c2ccco2)nc2ccccc12`, the IC50 in experiment [5] was > 56.8 µM (inactive); on SUMO E1/E2, 4.98 µM (active); in experiment [6], > 56.8 µM (inactive).

Take `COc1cc2oc(-c3ccccc3)cc(=O)c2cc1O`: the AC50 was 5.01 µM (inconclusive) at Cytochrome P450 2C19 and 31.6 µM (inconclusive) at Cytochrome P450 2D6.

Take `COc1cccc(NC(=O)c2ccnc(N3CCC(C(=O)NCc4cc(OC)ccc4OC)CC3)c2)c1`: the EC50 at Caspase-7 and on Caspase-3 was > 85.3 µM (inactive) in each case.

`C=CCNC1=N[C@@H](c2ccccc2)C(C(=O)OC)=C(C)N1CC`: the concentration for half-maximal inhibition (IC50) is 9.54 µM (active) in experiment [7], > 100 µM (inactive) in experiment [8], 4.51 µM (active) in [9] and 5.62 µM (active) in experiment [10].
